For assay [1], the target named is T1, His-His-USP7 (aa208-560, |C315A|) (Homo sapiens, UniProt Q93009, C315A).
T1 construct: His-His-USP7 (aa208-560, |C315A|); His-His (N)
The assay can be described thus: Evaluation of the inhibition of USP7 by the Fluorescence Intensity (FLINT) readings. Format: biochemical. The note with it: 0.25 nM His-His-USP7, compound incubated 60 minutes at 30° C., 500 nM Ubiquitin-Rhodamine-110 substrate; 50% reduction in kinetic rate. A digest of the protocol: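 0.25 nM His-His-USP7 (aa208–560, C315A) preincubated 60 min at 30 °C with compound in 100 mM Bicine pH 8.0, 0.01% Triton X-100, 1 mM TCEP, 10% DMSO. Reaction started with 500 nM ubiquitin-rhodamine-110 and fluorescence (Ex485/Em535) read every 3 min for 21 min. IC50 derived from kinetic-rate reduction over an 11-point curve, 4-parameter fit.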

Assay [2] deals with Z138 mantle cell lymphoma tumour cell lines. The experiment in a line: In vitro cytotoxicity, MTT assay. The note with it: Z138 cells exposed to the test compounds for 96 hours, cell viability vs DMSO treated cells. Format: cell-based. On the procedure:
The cytotoxicity studies were evaluated by MTT [3-(4,5-dimethylthiazol-2-yl)-2,5-diphenyltetrazolium bromide] assay and carried out on Z138 mantle cell lymphoma tumour cell lines. The cells are distributed onto microplates and exposed to the test compounds for 96 hours. MTT is then added for 4 hours and converted by NAD(P)H-dependent cellular oxidoreductase enzymes in formazan, which has a purple color. The viable cell number is proportional to the production of formuan salts and cell viability can be quantified by the absorbance of the solution at 540 nm with a speetrophotometer (Carmichael et al., Cancer Res. 1987, 47, 936-942).
On the technique in general: Formazan colour is commonly taken as a measure of viable cells.

These results are taken from patent publication US20210221785A1, “AMINO-PYRIMIDONYL DERIVATIVES, A PROCESS FOR THEIR PREPARATION AND PHARMACEUTICAL COMPOSITIONS CONTAINING THEM” (LES LABORATOIRES SERVIER, priority 2018, published 2021).

T1 sequence (Q93009 208-560 C315A): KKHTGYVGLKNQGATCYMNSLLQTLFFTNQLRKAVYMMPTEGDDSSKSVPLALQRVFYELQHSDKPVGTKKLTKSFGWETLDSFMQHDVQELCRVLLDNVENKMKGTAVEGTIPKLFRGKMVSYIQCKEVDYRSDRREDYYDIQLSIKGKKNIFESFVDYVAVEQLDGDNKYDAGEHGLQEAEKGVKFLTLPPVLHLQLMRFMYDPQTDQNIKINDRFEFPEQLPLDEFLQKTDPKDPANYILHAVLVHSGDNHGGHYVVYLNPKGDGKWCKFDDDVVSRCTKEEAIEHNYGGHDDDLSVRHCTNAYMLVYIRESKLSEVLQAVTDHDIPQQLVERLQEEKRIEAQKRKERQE

With `Nc1c(Oc2ccc(F)cc2)ncn(CC2(O)CCN(C(=O)[C@@H]3CC[C@](O)(Cc4ccccn4)C[C@H]3c3ccccc3)CC2)c1=O` (relative stereo) [Example 96, rel-5-amino-6-(4-fluorophenoxy)-3-({4-hydroxy-1-[(1R,2R,4R)-4-hydroxy-2-phenyl-4-](pyridin-2-yl)methyl]cyclohexanecarbonyl]piperidin-4-yl}methyl)-3,4-dihydropyrimidin-4-one], the IC50 in assay [1] was found to be 109 nM; in assay [2] (Homo sapiens, Z-138, 96 h) it was 0.116 µM.

For the compound `Cc1cccc(Oc2ncn(CC3(O)CCN(C(=O)[C@@H]4CCC(F)(F)C[C@H]4c4ccccc4)CC3)c(=O)c2N)c1` [Example 19, 5-amino-3-({1-[(1R,2R)-4,4-difluoro-2-phenylcyclohexane-1-carbonyl]-4-hydroxypiperidin-4-yl}methyl)-6-(3-methylphenoxy)pyrimidin-4(3H)-one], the IC50 in assay [1] was 83.1 nM; in assay [2] (Homo sapiens, Z-138, 96 h), 0.0716 µM.

For the compound `Nc1c(Oc2ccc(F)cc2)ncn(CC2(O)CCN(C(=O)[C@@H]3CCC(F)(F)C[C@H]3c3ccccc3)CC2)c1=O` [Example 5, 5-amino-3-({1-[(1R,2R)-4,4-difluoro-2-phenylcyclohexane-1-carbonyl]-4-hydroxypiperidin-4-yl}methyl)-6-(4-fluorophenoxy)pyrimidin-4(3H)-one], the IC50 in assay [1] was 63.4 nM; in assay [2] (Homo sapiens, Z-138, 96 h) it was 0.0435 µM.

With `Nc1c(Oc2ccc(CNC3CC3)cc2)ncn(CC2(O)CCN(C(=O)[C@@H]3CCC(F)(F)C[C@H]3c3ccccc3)CC2)c1=O` [Example 77], the IC50 is 25 nM in assay [1] and 0.156 µM in assay [2] (Homo sapiens, Z-138, 96 h).

`NCCCc1ccc(Oc2ncn(CC3(O)CCN(C(=O)[C@@H]4CCC(F)(F)C[C@H]4c4ccccc4)CC3)c(=O)c2N)cc1` [Example 68, 5-amino-6-[4-(3-aminopropyl)phenoxy]-3-([1-[(1R,2R)-4,4-difluoro-2-phenylcyclohexane-1-carbonyl]-4-hydroxypiperidin-4-yl]methyl)pyrimidin-4(3H)-one]: the IC50 worked out at 39 nM in assay [1] and 0.454 µM in assay [2] (Homo sapiens, Z-138, 96 h).

On to `Nc1c(Oc2ccc(Cl)c(O)c2)ncn(CC2(O)CCN(C(=O)[C@@H]3CCC(F)(F)C[C@H]3c3ccccc3)CC2)c1=O` [Example 110, 5-amino-6-(4-chloro-3-hydroxyphenoxy)-3({1-[(1R,2R)-4,4-difluoro-2-phenylcyclohexane-1-carbonyl]-4-hydroxypiperidin-4-yl}methyl)pyrimidin-4(3H)-one], for which the IC50 in assay [1] came to 28 nM; in assay [2] (Homo sapiens, Z-138, 96 h), 0.0254 µM.

Turning to `Cc1nccnc1C#C[C@@]1(F)CC[C@@H](C(=O)N2CCC(O)(Cn3cnc(Oc4ccc(F)cc4)c(N)c3=O)CC2)[C@H](c2ccccc2)C1` [Example 148, 5-amino-3-({1-[(1R,2R,4R)-4-fluoro-4-[2-(3-methylpyrazin-2yl)ethynyl]-2-phenylcyclohexanecarbonyl]-4-hydroxypiperidin-4-yl}methyl)-6-(4-fluorophenoxy)-3,4-dihydropyrimidin-4-one], the IC50 in assay [1] is 26.6 nM; in assay [2] (Homo sapiens, Z-138, 96 h) it was 0.0101 µM.

Regarding `CO[C@]1(C#Cc2cccnn2)CC[C@@H](C(=O)N2CCC(O)(Cn3cnc(Oc4ccc(F)cc4)c(N)c3=O)CC2)[C@H](c2ccccc2)C1` [Example 146, 5-amino-6-(4-fluorophenoxy)-3-[(4-hydroxy-{[(1R,2R,4R)-4-methoxy-2-phenyl-4-[2-(pyridazin-3-yl)ethynyl]cyclohexyl]carbonyl}piperidin-4-yl)methyl]pyrimidin-4-one], the 50% inhibitory concentration (IC50) is 18.5 nM in assay [1] and 0.00597 µM in assay [2].

As to `CO[C@]1(C#Cc2cncnc2)CC[C@@H](C(=O)N2CC[C@](O)(Cn3cnc(Oc4ccc(F)cc4)c(N)c3=O)C(F)(F)C2)[C@H](c2ccccc2)C1` [Example 175, 5-amino-3-{[(4S)-3,3-difluoro-4-hydroxy-1-[(1R,2R,4R)-4-methoxy-2-phenyl-4-[2-(pyrimidin-5-yl)ethynyl]cyclohexanecarbonyl]piperidin-4-yl]methyl}-6-(4-fluorophenoxy)-3,4-dihydropyrimidin-4-one], the IC50 in assay [1] was 54 nM; in assay [2] (Homo sapiens, Z-138, 96 h), 0.00998 µM.

Take `Cc1cnc(C#CC2(F)CCC(C(=O)N3CCC(O)(Cn4cnc(Oc5ccc(F)cc5)c(N)c4=O)CC3)C(c3ccccc3)C2)cn1` [Example 150, 5-amino-3-({1-[1R,2R,4S)-4-fluoro-4-[2-(5-methylpyrazin-2-yl)ethynyl]-2-phenylcyclohexanecarbonyl]-4-hydroxypiperidin-4-yl}methyl)-6-(4-fluorophenoxy)-3,4-dihydropyrimidin-4-one]: the IC50 amounted to 37.7 nM in assay [1] and 0.0258 µM in assay [2] (Homo sapiens, Z-138, 96 h).

As to `CC(C)(C)NCc1ccc(Oc2ncn(CC3(O)CCN(C(=O)[C@@H]4CCC(F)(F)C[C@H]4c4ccccc4)CC3)c(=O)c2N)cc1` [Example 75, 5-amino-6-{4-[(tert-butylamino)methyl]phenoxy}-3-({1-[(1R,2R)-4,4-difluoro-2-phenylcyclohexane-1-carbonyl]-4-hydroxypiperidin-4-yl}methyl)pyrimidin-4(3H)-one], the IC50 in assay [1] worked out at 10 nM; in assay [2] (Homo sapiens, Z-138, 96 h), 0.184 µM.

With `Nc1c(Oc2ccc(Cl)cc2)ncn(CC2(O)CCN(C(=O)[C@@H]3CCC(F)(F)C[C@H]3c3ccccc3)CC2)c1=O` [Example 11, 5-amino-6-(4-chlorophenoxy)-3-({1-[(1R,2R)-4,4-difluoro-2-phenylcyclohexane-1-carbonyl]-4-hydroxypiperidin-4-yl}methyl)pyrimidin-4(3H)-one], the IC50 worked out at 58.7 nM in assay [1] and 0.197 µM in assay [2] (Homo sapiens, Z-138, 96 h).

With `CO[C@]1(C#Cc2cccc(N)n2)CC[C@@H](C(=O)N2CC[C@](O)(Cn3cnc(Oc4ccc(F)cc4)c(N)c3=O)C(F)(F)C2)[C@H](c2ccccc2)C1` [Example 164, 5-amino-3-{[(4S)-1-[(1R,2R,4R)-4-[2-(6-aminopyridin-2-yl)ethynyl]-4-methoxy-2-phenylcyclohexanecarbonyl]-3,3-difluoro-4-hydroxypiperidin-4-yl]methyl}-6-(4-fluorophenoxy)-3,4-dihydropyrimidin-4-one], the IC50 came out at 24.6 nM in assay [1] and 0.0165 µM in assay [2] (Homo sapiens, Z-138, 96 h).

For the compound `Nc1c(Oc2ccc(F)cc2)ncn(CC2(O)CCN(C(=O)[C@@H]3CC[C@](F)(C#Cc4cncnc4)C[C@H]3c3ccccc3)CC2)c1=O` [Example 144, 5-amino-3-({1-[(1R,2R,4R)-4-fluoro-2-phenyl-4-[2-(pyrimidin-5-yl)ethynyl]cyclohexanecarbonyl]-4-hydroxypiperidin-4-yl}methyl)-6-(4-fluorophenyoxy)-3,4-dihydropyrimidin-4-one], the IC50 is 21 nM in assay [1] and 0.0122 µM in assay [2] (Homo sapiens, Z-138, 96 h).

As to `CO[C@]1(C#Cc2cnccn2)CC[C@@H](C(=O)N2CCC(O)(Cn3cnc(Oc4ccc(F)cc4)c(N)c3=O)CC2)[C@H](c2ccccc2)C1` [Example 156, 5-amino-6-(4-fluorophenoxy)-3-({4-hydroxy-1-[(1R,2R,4R)-4-methoxy-2-phenyl-4-[2-(pyrazin-2-yl)ethynyl]cyclohexanecarbonyl]piperidin-4-yl}methyl)-3,4-dihydropyrimidin-4-one], the concentration for half-maximal inhibition (IC50) is 29.6 nM in assay [1] and 0.00653 µM in assay [2] (Homo sapiens, Z-138, 96 h).

For the compound `COc1cc(Oc2ncn(CC3(O)CCN(C(=O)[C@@H]4CCC(F)(F)C[C@H]4c4ccccc4)CC3)c(=O)c2N)ccc1Cl` [Example 12, 5-amino-6-(4-chloro-3-methoxy-phenoxy)-3-({1-[(1R,2R)-4,4-difluoro-2-phenylcyclohexane-1-carbonyl]-4-hydroxypiperidin-4-yl}methyl)pyrimidin-4(3H)-one], the IC50 in assay [1] came to 57.1 nM; in assay [2] (Homo sapiens, Z-138), 0.0909 µM.

`Cc1ccc(C#C[C@@]2(F)CC[C@@H](C(=O)N3CC[C@](O)(Cn4cnc(Oc5ccc(F)cc5)c(N)c4=O)C(F)(F)C3)[C@H](c3ccccc3)C2)nn1` [Example 162, 5-amino-3-[[(4S)-3,3-difluoro-1-[(1R,2R,4R)-4-fluoro-4-[2-(6-methylpyridazin-3-yl)ethynyl]-2-phenylcyclohexanecarbonyl]-4-hydroxypiperidin-4-yl]methyl]-6-(4-fluorophenoxy)-3,4-dihydropyrimidin-4-one]: the IC50 is 10 nM in assay [1] and 0.00647 µM in assay [2] (Homo sapiens, Z-138, 96 h).

As to `Nc1c(Oc2ccccc2)ncn(CC2(O)CCN(C(=O)[C@@H]3CCC(F)(F)C[C@H]3c3ccccc3)CC2)c1=O` [Example 1, 5-amino-3-({1-[(1R,2R)-4,4-difluoro-2-phenylcyclohexane-1-carbonyl]-4-hydroxypiperidin-4-yl}methyl)-6-phenoxypyrimidin-4(3H)-one], the IC50 in assay [1] came to 43.7 nM; in assay [2] (Homo sapiens, Z-138, 96 h), 0.0866 µM.

With `CN(C)Cc1ccc(Oc2ncn(CC3(O)CCN(C(=O)[C@@H]4CCC(F)(F)C[C@H]4c4ccccc4)CC3)c(=O)c2N)cc1` [Example 108, 5-amino-3-({1-[(1R,2R)-4,4-difluoro-2-phenylcyclohexane-1-carbonyl]-4-hydroxypiperidin-4-yl}methyl)-6-{4-[(dimethylamino)methyl]phenoxy}pyrimidin-4(3H)-one], the IC50 in assay [1] came to 63.9 nM; in assay [2] (Homo sapiens, Z-138, 96 h) it was 0.654 µM.

By IC50 is commonly meant the concentration needed to halve the response being measured. The low end stands for higher potency, the high end for lower potency.
